In series [1] the test system is scn1lab mutant zebrafish. The experiment in a line: Locomotion assay of high-velocity seizure-like swim behavior. In kind it is in vivo, zebrafish (Danio rerio). The source says: Zebrafish maintenance. Zebrafish were raised under standard laboratory conditions in accordance with requirements outlined in the Guide for the Care and Use of Animals (ebrary Inc., 2011) and experiments were approved by the Institutional Animal Care and Use Committee (protocol #AN108659-03). Embryos were obtained by natural spawning of scn1lab (didy^s552) heterozygous animals that had been outcrossed to TL strain. Homozygous scn1lab mutants (n=2500) have dispersed melanosomes and appear visibly darker by 3 dpf compared to WT larvae.
(§1) Seizure monitoring. At 5 dpf individual zebrafish larvae were placed into a single well of a clear flat-bottomed 96-well microplate containing embryo media. Larvae were selected randomly as sex determination is not possible at this stage of development. All drug screening experiments were conducted in an unbiased manner by investigators blinded to the test compounds and all files coded for post hoc analysis. Microplates were placed inside the DanioVision and acclimated for 20 min at room temperature. Locomotion plots were obtained for each well at a recording epoch of 10 min using EthoVision XT software (DanioVision, Noldus Information Technology). Seizure scoring was performed using the following three-stage scale established for pentylenetetrazole-induced seizures: Stage 0, no or very little swim activity; Stage I, increased, brief bouts of swim activity; Stage II, rapid “whirlpool-like” circling swim behavior; and Stage III, paroxysmal whole-body clonus-like convulsions, and a brief loss of posture. WT fish are typically scored at Stage 0 or I. Plots were analyzed for distance travelled (in millimeters) and mean velocity (in millimeters per second). After 90 mins of drug exposure larvae were examined for toxic side-effects. Compounds that decreased or stopped the larva heartbeat, or reduced or eliminated the escape response when touched, were considered toxic.
Statistics. Data are presented as the mean±standard error of the mean (SEM), unless otherwise stated. For behavior analysis, the threshold for a change in mean swim velocity ≥40% (>1.5×SD of 250 control treated scn1lab) is considered significant. For comparison between more than two groups one-way ANOVA analysis was used. […] Differences considered statistically significant are indicated with asterisks (*P<0.05; **P<0.01).

Series [2] has as its system scn1lab mutant zebrafish. The experiment in a line: Local field potential (LFP) electrophysiology of electrographic seizure events. Format: in vivo, zebrafish (Danio rerio). On the procedure:
For electrophysiology studies, zebrafish larvae were anesthetized with cold and immobilized in 1.2% agarose; local field potential (LFP) recordings were obtained from forebrain or optic tectum structures using a single-electrode approach, as previously described (Baraban, S. C. et al., Neuroscience, 131, 759-768, 2005). Agarose-embedded LFP recording sessions of 10 min were obtained at 1 kHz. Epileptiform events were identified post hoc and defined as multi-spike or poly-spike upward or downward membrane deflections greater than 3× baseline noise level and 150-250 ms in duration (interictal-like) or greater than 5× baseline noise, multi-spike and >500 ms in duration (ictal-like); both events were counted using threshold detection settings in Clampfit (Molecular Devices; Sunnyvale, Calif.). During electrophysiology experiments larvae were continuously monitored for blood flow and heart rate using an Axiocam digital camera at video frame rate.
Monitoring electrographic brain activity to confirm seizure suppression is an essential assay to eliminate false positives from behavioral testing (Griffin, A. et al., Frontiers in Pharmacology, 9, 2018). By placing a microelectrode into a visually identified brain region of an agar-immobilized zebrafish larval, stable local field potential (LFP) recordings can be monitored for several hours (Baraban, S. C. et al., Nat Commun, 4, 2410, 2013). At 5 dpf LFP recordings of scn1Lab zebrafish larvae show an average of 250 abnormal electrographic seizure events during a 10 min recording epoch.

For series [3], the target named is T1, human 5-HT2AR (Homo sapiens, UniProt P28223).
T1 construct: expressed in transfected cells
As to conditions: read-out: binding affinity (Ki) 5-HT2A / 5-HT2AR, cited from earlier work.

For series [4], the target named is T2, 5-HT1A (Homo sapiens, UniProt P08908).
T2 sequence (P08908 1-422): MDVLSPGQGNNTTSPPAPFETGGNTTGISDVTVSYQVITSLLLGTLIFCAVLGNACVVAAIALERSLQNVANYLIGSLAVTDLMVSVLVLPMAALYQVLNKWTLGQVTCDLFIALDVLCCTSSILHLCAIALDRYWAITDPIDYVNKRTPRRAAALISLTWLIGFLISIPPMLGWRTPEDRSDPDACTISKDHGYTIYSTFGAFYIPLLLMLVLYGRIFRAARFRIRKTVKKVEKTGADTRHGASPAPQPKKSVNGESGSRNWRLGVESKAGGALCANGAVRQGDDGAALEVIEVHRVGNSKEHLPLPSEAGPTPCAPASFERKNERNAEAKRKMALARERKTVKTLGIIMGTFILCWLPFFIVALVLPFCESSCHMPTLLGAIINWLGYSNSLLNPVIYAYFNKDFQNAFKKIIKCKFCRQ
Conditions: read-out: binding affinity (Ki) 5-HT1A; cited from earlier work.

The target in series [5] is 5-HT7 (Homo sapiens, UniProt P34969). As to conditions: read-out: binding affinity (Ki) 5-HT7; cited from earlier work.
The target of series [6] is 5-HT Transporter (Homo sapiens, UniProt P31645). Conditions: read-out: binding affinity (Ki) 5-HT Transporter; cited from earlier work.
Series [7] addresses T1, human 5-HT2AR. Briefly: biochemical. In kind it is binding. On the procedure: (§2) Receptor Binding Assays. In vitro binding assay and Ki data were performed by the US National Institute of Mental Health Psychoactive Drug Screening Program (NIMH PDSP). Drugs were screened against recombinant, stably expressed human 5-HT2AR, 5-HT2BR, 5-HT2CR and H1. For specific binding assays please refer to detailed procedures at https://pdspdb.unc.edu/pdspWeb/ (Besnard, J. et al., Nature, 492, 215-220, 2012).

In series [8] the target is T3, human 5-HT2BR (Homo sapiens, UniProt P41595).
T3 construct: expressed in transfected cells
Briefly: biochemical. Format: binding. Here is the method:
as §2

The target of series [9] is T4, human 5-HT2CR (Homo sapiens, UniProt P28335).
T4 construct: expressed in transfected cells
T4 sequence (P28335 33-458): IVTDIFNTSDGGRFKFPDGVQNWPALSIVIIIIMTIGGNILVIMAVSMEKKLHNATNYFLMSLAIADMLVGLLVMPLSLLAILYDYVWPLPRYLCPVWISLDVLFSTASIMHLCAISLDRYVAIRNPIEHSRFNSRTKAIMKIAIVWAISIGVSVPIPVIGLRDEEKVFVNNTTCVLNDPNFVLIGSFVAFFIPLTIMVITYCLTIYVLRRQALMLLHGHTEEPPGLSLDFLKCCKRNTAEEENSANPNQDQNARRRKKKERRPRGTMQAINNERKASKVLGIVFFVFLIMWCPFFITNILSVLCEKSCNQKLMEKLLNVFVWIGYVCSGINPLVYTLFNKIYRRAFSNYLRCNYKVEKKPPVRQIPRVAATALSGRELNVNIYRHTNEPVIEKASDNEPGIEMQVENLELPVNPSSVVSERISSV
The experiment in a line: Radioligand binding assay (NIMH PDSP), 5-HT2CR. Here is the method: as §2

Series [10] concerns human 5-HT2R. The experiment in a line: Radioligand binding assays (NIMH PDSP), 5-HT2R subtypes together. Conditions: 5-HT2AR, 5-HT2BR, 5-HT2CR. On the procedure:
Receptor Binding Assays. In vitro binding assay and Ki data were performed by the US National Institute of Mental Health Psychoactive Drug Screening Program (NIMH PDSP). Drugs were screened against recombinant, stably expressed human 5-HT2AR, 5-HT2BR, 5-HT2CR and H1.

For series [11], the target named is T5, human H1 receptor (Homo sapiens, UniProt P35367). The experiment in a line: Radioligand binding assay (NIMH PDSP), H1. Also on record: expressed in transfected cells. On the procedure: as §2
The nature of series [12]: Solubility in the screening medium. Format: physicochemical. As to conditions: 250 μM. Here is the method: 10 mM compound stock solutions were made in DMSO and then diluted in embryo medium for assays.
Series [13] concerns the target 5-HT5 (Homo sapiens, UniProt P47898). Conditions: read-out: binding affinity (Ki) 5-HT5; cited from earlier work.
The target in series [14] is 5-HT6 (Homo sapiens, UniProt P50406). As to conditions: read-out: binding affinity (Ki) 5-HT6; cited from earlier work.
Series [15] addresses Norepinephrine Transporter (Homo sapiens, UniProt P23975). As to conditions: read-out: binding affinity (Ki) Norepinephrine Transporter; cited from earlier work.
The target of series [16] is T3, human 5-HT2BR. As to conditions: known drugs and commercial compounds; read-out: binding affinity (Ki) 5-HT2B / 5-HT2BR; cited from earlier work.
Series [17] addresses T4, human 5-HT2CR. As to conditions: known drugs and commercial compounds; read-out: binding affinity (Ki) 5-HT2C / 5-HT2CR; cited from earlier work.
The target in series [18] is Histamine H3 (Homo sapiens, UniProt Q9Y5N1). Conditions: read-out: binding affinity (Ki) Histamine H3; cited from earlier work.
Series [19] has as its target T5, human H1 receptor. As to conditions: read-out: binding affinity (Ki) Histamine H1; cited from earlier work.
The subject of series [20] is scn1lab mutant zebrafish. Briefly: Toxicity in larvae after 90 min drug exposure (heartbeat, escape response). In kind it is in vivo, zebrafish (Danio rerio). On the procedure:
as §1

[21] abbreviates: known drugs and commercial compounds.
The mark [22] stands for this setting: read-out: binding affinity (Ki) 5-HT2AR.
[23] abbreviates: read-out: binding affinity (Ki) 5-HT2BR.
The mark [24] stands for this setting: read-out: binding affinity (Ki) 5-HT2CR.
The mark [25] stands for this setting: read-out: binding affinity (Ki) H1.

Entries after “also recorded” stand apart in the source; their conditions may differ. Where two headings read alike, the source gives them in different places.

The values that follow come from patent US20220226508A1, “METHODS AND COMPOSITIONS FOR TREATING EPILEPSY” (THE REGENTS OF THE UNIVERSITY OF CALIFORNIA, priority 2019, published 2022).

T1 sequence (P28223 whole entry): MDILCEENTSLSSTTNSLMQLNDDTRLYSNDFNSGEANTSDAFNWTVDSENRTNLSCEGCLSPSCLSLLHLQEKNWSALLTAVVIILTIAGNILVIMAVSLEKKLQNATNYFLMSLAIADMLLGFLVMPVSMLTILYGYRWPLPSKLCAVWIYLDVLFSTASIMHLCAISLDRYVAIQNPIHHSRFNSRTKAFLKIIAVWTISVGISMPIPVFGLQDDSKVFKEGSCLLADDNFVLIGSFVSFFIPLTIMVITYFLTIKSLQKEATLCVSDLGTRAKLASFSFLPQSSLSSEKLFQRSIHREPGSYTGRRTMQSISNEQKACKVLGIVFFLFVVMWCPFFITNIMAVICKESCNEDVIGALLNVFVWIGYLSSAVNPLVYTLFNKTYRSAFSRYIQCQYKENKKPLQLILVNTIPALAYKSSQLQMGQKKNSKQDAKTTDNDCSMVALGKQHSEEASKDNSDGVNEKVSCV
T5 sequence (P35367 whole entry): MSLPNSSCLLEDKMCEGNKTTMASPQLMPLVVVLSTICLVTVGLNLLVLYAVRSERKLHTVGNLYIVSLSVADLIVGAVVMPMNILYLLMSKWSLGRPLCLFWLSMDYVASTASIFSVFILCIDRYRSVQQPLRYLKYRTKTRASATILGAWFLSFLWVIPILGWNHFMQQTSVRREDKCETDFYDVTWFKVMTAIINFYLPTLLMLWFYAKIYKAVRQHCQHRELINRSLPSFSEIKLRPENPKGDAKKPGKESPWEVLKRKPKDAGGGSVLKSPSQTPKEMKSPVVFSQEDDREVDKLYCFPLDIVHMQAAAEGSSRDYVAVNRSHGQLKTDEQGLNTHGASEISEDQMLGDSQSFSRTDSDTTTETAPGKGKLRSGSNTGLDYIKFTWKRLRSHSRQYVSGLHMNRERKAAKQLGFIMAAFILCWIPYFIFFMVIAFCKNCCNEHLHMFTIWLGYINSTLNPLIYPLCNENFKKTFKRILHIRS
T3 sequence (P41595 whole entry): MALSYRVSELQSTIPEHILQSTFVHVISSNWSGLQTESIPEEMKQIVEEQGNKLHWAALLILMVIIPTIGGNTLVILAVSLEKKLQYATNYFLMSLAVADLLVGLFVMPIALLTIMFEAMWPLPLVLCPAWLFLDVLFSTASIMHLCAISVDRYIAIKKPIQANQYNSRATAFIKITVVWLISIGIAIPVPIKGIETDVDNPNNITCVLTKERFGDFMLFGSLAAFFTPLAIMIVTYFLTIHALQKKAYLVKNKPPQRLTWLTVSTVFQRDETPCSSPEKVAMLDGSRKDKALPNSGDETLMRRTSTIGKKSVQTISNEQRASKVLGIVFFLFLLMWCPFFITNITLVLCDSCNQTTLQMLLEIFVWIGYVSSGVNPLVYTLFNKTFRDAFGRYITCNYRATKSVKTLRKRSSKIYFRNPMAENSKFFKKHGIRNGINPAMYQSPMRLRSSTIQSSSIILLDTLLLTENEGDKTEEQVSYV
Sequence of 5-HT7 (P34969 whole entry, species assumed): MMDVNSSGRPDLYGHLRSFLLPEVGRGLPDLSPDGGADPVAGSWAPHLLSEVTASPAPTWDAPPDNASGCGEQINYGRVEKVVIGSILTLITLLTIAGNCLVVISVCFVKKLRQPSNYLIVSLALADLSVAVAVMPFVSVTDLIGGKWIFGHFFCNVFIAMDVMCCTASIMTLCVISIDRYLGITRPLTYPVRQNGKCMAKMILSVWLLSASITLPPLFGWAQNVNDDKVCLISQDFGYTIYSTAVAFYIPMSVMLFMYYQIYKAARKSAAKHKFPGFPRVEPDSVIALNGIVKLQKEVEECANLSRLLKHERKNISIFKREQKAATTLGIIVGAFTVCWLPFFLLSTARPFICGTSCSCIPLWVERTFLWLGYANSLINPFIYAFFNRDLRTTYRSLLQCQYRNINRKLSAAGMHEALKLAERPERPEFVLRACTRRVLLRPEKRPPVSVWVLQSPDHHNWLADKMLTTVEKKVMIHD
Sequence of Histamine H3 (Q9Y5N1 whole entry): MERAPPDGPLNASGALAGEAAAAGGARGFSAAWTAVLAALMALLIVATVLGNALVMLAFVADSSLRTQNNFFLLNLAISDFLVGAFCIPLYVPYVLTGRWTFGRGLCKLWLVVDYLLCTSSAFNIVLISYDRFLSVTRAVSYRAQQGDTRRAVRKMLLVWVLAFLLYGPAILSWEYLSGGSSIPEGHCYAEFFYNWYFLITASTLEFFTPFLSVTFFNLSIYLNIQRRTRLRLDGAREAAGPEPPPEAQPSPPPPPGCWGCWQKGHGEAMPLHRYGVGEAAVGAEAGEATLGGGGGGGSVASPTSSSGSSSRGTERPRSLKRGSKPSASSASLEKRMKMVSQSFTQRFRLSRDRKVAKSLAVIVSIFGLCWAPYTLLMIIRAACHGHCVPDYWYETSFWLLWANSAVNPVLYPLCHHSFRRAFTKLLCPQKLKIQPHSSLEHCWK
Sequence of 5-HT5 (P47898 whole entry, species assumed): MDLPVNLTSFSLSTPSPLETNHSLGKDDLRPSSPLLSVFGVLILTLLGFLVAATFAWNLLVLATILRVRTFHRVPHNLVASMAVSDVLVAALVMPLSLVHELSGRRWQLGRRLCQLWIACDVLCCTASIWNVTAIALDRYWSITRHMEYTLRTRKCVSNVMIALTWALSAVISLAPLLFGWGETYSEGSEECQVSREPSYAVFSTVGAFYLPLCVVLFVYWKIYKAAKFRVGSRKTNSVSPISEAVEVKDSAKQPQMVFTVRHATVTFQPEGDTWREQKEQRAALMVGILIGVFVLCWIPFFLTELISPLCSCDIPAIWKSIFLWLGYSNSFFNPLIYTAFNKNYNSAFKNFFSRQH
Sequence of Norepinephrine Transporter (P23975 whole entry): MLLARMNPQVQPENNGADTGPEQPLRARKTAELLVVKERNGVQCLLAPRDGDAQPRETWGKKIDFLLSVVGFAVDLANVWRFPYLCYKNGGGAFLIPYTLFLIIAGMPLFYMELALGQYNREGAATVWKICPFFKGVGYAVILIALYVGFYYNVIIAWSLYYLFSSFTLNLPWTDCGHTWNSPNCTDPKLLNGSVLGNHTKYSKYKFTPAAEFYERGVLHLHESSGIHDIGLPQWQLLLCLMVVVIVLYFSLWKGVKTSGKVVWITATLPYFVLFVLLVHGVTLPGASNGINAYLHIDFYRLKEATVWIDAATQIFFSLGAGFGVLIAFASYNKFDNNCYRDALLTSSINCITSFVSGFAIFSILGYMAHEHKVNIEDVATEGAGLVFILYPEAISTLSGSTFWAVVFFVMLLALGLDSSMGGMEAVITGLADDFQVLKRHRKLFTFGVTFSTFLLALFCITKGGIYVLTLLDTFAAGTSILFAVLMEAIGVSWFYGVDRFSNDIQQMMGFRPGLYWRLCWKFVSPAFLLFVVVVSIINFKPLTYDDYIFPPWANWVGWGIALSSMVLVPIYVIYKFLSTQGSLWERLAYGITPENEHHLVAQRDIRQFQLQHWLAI
Sequence of 5-HT6 (P50406 whole entry, species assumed): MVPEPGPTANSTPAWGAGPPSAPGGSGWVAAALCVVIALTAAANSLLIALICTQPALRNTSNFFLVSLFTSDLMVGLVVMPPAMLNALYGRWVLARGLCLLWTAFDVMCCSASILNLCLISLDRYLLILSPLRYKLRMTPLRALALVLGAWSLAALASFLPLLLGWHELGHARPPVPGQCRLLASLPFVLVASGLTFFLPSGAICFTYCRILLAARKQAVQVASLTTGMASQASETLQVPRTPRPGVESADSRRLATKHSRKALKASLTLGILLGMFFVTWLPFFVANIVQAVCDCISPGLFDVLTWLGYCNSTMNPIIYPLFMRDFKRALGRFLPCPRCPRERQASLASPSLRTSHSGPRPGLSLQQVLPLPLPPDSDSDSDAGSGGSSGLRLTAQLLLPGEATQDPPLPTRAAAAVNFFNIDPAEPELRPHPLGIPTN
Sequence of 5-HT Transporter (P31645 whole entry, species assumed): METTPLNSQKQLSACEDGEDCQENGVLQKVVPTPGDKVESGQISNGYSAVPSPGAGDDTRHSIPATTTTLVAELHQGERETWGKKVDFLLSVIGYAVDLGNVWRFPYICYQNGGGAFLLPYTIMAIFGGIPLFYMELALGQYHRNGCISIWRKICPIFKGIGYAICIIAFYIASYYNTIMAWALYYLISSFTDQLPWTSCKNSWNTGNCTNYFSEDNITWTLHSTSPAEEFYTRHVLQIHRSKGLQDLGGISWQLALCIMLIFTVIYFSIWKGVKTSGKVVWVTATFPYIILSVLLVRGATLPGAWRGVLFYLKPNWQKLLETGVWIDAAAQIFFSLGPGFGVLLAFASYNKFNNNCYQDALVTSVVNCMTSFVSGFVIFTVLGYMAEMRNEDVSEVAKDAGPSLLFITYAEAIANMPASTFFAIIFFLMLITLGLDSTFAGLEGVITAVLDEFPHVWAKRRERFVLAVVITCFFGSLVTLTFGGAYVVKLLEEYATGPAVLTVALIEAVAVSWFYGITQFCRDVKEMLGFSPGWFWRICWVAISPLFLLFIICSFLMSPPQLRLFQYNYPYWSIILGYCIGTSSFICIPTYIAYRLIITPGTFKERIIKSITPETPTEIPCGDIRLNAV

`CC(N)Cc1ccc2ccoc2c1` (centres unmarked) [Compound 6-APB, 6-APB]: in series [1] (commercial 5-HT2BR/dopamine agonists, three concentrations, 30 and 90 min exposure, threshold ≥40%), the “effect on seizure-like swim behavior (change in mean velocity)” value is reported as “suppressed convulsive swim behaviors in a concentration-dependent manner”. Moreover, the “frequency of electrographic seizure (epileptiform) events” value in series [2] (250 μM, 10 min LFP recording, 5 dpf larvae) was “significant changes in the frequency of events; also recorded: significantly suppressed the frequency of electrographic seizure events”. The Ki is 1930 nM in [3] (setting [21]), 1280 nM in [4], 155 nM in [5] and 2700 nM in [6].

For the compound `N#Cc1cccc(Cn2c(CN3CCCC3)nc3ccccc32)c1` [Compound 10], the Ki is greater than 10 µM in series [7] (setting [22]), greater than 10 µM in [8] (setting [23]), greater than 10 µM in [9] (setting [24]) and 351 nM in series [11] (setting [25]). Besides, the “binding to any human 5-HT2R” value in series [10] is “no significant binding”.

`c1ccc2c(c1)nc(CN1CCCC1)n2CC1CCOCC1` [Compound 15]: the Ki in [7] is greater than 10 µM; in series [8], greater than 10 µM; in [9], greater than 10 µM; in [11], 865 nM. Moreover, the “binding to any human 5-HT2R” value in series [10] is listed as “no significant binding”.

On to `FC1(F)CCC(Cn2c(CN3CCCC3)nc3ccccc32)CC1` [Compound 17], for which the Ki in series [7] (setting [22]) is greater than 10 µM; in [8] (setting [23]), greater than 10 µM; in series [9] (setting [24]) it was greater than 10 µM; in series [11] (setting [25]) it was 137 nM. Also, in series [10], the “binding to any human 5-HT2R” value was “no significant binding”.

Regarding `c1cn(CC2CCCCC2)c(CN2CCCC2)n1` [Compound 21], the Ki in series [7] (setting [22]) was greater than 10 µM; in series [8] (setting [23]), greater than 10 µM; in series [9] (setting [24]) it was greater than 10 µM; in series [11] (setting [25]), greater than 10000 nM. The “binding to any human 5-HT2R” value in [10] is reported as “no significant binding”.

Turning to `CC(C)(C)OC(=O)N1CCN(Cc2nc3ccccc3n2Cc2ccc(Cl)cc2)CC1` [Compound 25, tert-Butyl 4-({1-[(4-chlorophenyl)methyl]-1H-benzimidazol-2-yl}methyl)piperazine-1-carboxylate], the Ki was 2.38 µM in series [7] (clemizole analogs, recombinant human receptor, read-out: binding affinity (Ki) 5-HT2AR); 0.482 µM in series [8] (clemizole analogs, recombinant human receptor, read-out: binding affinity (Ki) 5-HT2BR); 2.27 µM in [9] (clemizole analogs, recombinant human receptor, read-out: binding affinity (Ki) 5-HT2CR); 76 nM in [11] (clemizole analogs, recombinant human receptor, read-out: binding affinity (Ki) H1). Besides, in series [12], the going into solution entry is reported as “failed to go into solution”.

Regarding `C[C@H]1CNCCc2ccc(Cl)cc21` [LOR], the Ki in series [4] was 700 nM; in [13], 3.71 µM; in [14], 1980 nM; in [5], 636 nM; in series [15], 1400 nM.

As for `Clc1ccc(Cn2c(CN3CCCC3)nc3ccccc32)cc1` [clemizole], in series [1] (phenotype-based screen), the “inhibition of spontaneous convulsive behaviors” value was “effective inhibitor”. Also, the “inhibition of electrographic seizures” value in [2] (phenotype-based screen) is given as “effective inhibitor”. In addition, the Ki in series [3] is 239 nM; in [16] it was 25 nM; in series [17] it was 197 nM; in series [18], 402 nM; in series [19] it was 1.3 nM.

As for `c1cnc(N2CCN(Cc3ccc4c(c3)OCO4)CC2)nc1` [piribedil], the “toxicity after 90-min exposure” value in series [20] (100 μM) and in [20] (250 μM) was “toxicity” each time. Moreover, the Ki in [3] (setting [21]) and in [17] was greater than 10000 nM throughout.
